Results taken from patent publication US8283358B2, “N-sulfonamido polycyclic pyrazolyl compounds” (Elan Pharmaceuticals, Inc., priority 2008, dated 2012).

Tested on: gamma secretase in CHO cells expressing APPSwe, NotchΔE and a Notch responsive luciferase reporter gene (SNC-204B8)
Assay: SNC dual cell assay for simultaneous assay of A-beta reduction and Notch signaling (Example D)
Conditions: ratio of Notch IC50/Aβ EC50 determined as described in Example D (SNC dual cell assay)
Description: In order to facilitate testing the potency of gamma-secretase inhibitors on two substrates (APP and Notch) simultaneously, a dual-assay using a CHO cell line stably expressing APPSwe, a Notch substrate lacking the ecto-domain, and a Notch responsive Luciferase reporter gene was developed. CHOSwe cells stably over-express the Swedish FAD isoform of APP, and secrete large amounts of Aβ peptide into the conditioned media from endogenous β- and γ-secretase enzyme activity. A Notch intracellular domain (NICD) responsive reporter gene, and the constitutive gamma-secretase Notch substrate, NotchΔE, were stably introduced into CHOSwe cells in a two step process. CHOSwe cells were first stably transfected to express a NICD responsive luciferase reporter gene construct (pGL2-CBF-Luc). […] Stable cell lines expressing rat NotchΔE were then identified in the second step by including a gamma-secretase inhibitor in the selection process (to suppress Notch/NICD toxicity) following transfection of the rat Notch-ΔE construct. […] This vector drives expression of a truncated rat Notch construct corresponding to the c-terminal product following ecto-domain shedding of full length rat Notch protein. The c-terminal product is a constitutive substrate for gamma-secretase cleavage, resulting in release of the cytoplasmic Notch intracellular domain (NICD) product, which translocates to the nucleus and relieves CBF repressed genes. Subsequently, pIRES-ZEDN transfected cells were re-plated at low density in the presence of test compound, and selected with three antibiotics (G418 (0.5 mg/ml)/Hygro (1 mg/ml)/Puro (2.5 mg/ml)). The antibiotic-resistant colonies (named SNC clones for the dual-assay components: APPSwe/NotchΔE/CBF) were isolated and expanded for characterization of Aβ secretion, and NICD responsive reporter gene activity (i.e. luciferase signal in the presence versus absence of test compound). […] A typical dual-assay experiment was performed as follows: Day 1, the SNC cells were plated in 96-well assay plates in inhibitor-free media. Day 2, the cells were fed with fresh media (inhibitor free) and treated with test compounds over a concentration range 0 nM to 40,000 nM (in 10× incremental dilutions) one hour after the media change. The cells were treated with compounds overnight at 37° C. […] For the Notch signaling assay, the cells were lysed and luciferase activity from the lysate was measured using the Promega kit (see below). Day 4, Aβ-ELISA part II was conducted using 3D6-biotin/AP-streptavidin antibodies.

Compound | Selectivity Ratio (Notch IC50/Aβ ED50)
O=S(=O)(c1ccc(C(F)(F)F)nc1)N1C2Cc3[nH]ncc3C1CC(c1nc(C(F)(F)F)cs1)C2 (racemic) [(±)-10-{[6-(trifluoromethyl)pyridin-3-yl]sulfonyl}-6-[4-(trifluoromethyl)-1,3-thiazol-2-yl]-4,5,6,7,8,9-hexahydro-1H-4,8-epiminocycloocta[c]pyrazole] | (+++) ((+++) means a ratio from about 150 to about 199)
O=S(=O)(c1ccc(C(F)(F)F)nc1)N1C2Cc3[nH]ncc3C1CC(c1ccc(F)cc1)C2 (racemic) [(±)-endo-6-(4-fluorophenyl)-10-{[6-(trifluoromethyl)pyridin-] [(±)-endo-6-(4-fluorophenyl)-10-{[6-(trifluoromethyl)pyridin-3-yl]sulfonyl}-4,5,6,7,8,9-hexahydro-1H-4,8-epiminocycloocta[c]pyrazole] | (++) ((++) means a ratio from about 100 to about 149)
O=S(=O)(c1ccc(C(F)(F)F)nc1)N1C2Cc3[nH]ncc3C1CC(c1ccc(F)cc1)C2 (racemic) [(±)-exo-6-(4-fluorophenyl)-10-{[6-(trifluoromethyl)pyridin-3] [(±)-exo-6-(4-fluorophenyl)-10-{[6-(trifluoromethyl)pyridin-3-yl]sulfonyl}-4,5,6,7,8,9-hexahydro-1H-4,8-epiminocycloocta[c]pyrazole] | (+++) ((+++) means a ratio from about 150 to about 199)
O=S(=O)(c1ccc(C(F)(F)F)cc1)N1C2c3cn[nH]c3C(F)C1c1cccc(F)c12 (single isomer, unassigned; (+)) [(+)-5,10-difluoro-11-{[4-(trifluoromethyl)phenyl]sulfonyl}-1,4,9,10-tetrahydro-4,9-epiminobenzo[4,5]cyclohepta[1,2-c]pyrazole] | (++) ((++) means a ratio from about 100 to about 149)
O=S(=O)(c1ccc(C(F)(F)F)cc1)N1C2c3ccccc3C1C(O)c1[nH]ncc12 (single isomer, unassigned; (+)) [(+)-endo-11-{[4-(trifloromethyl)phenyl]sulfonyl}-1,4,9,10-tetrahydro-4,9-epiminobenzo[4,5]cyclohepta[1,2-c]pyrazol-10-ol] | (+++) ((+++) means a ratio from about 150 to about 199)
O=C1c2[nH]ncc2C2c3c(F)cccc3C1N2S(=O)(=O)c1ccc(C(F)(F)F)nc1 (single isomer, unassigned; (-)) [(−)-5-fluoro-11-{[6-(trifluoromethyl)pyridin-3-yl]sulfonyl}-4,9-dihydro-4,9-epiminobenzo[4,5]cyclohepta[1,2-c]pyrazol-10(1H)-one] | (++++) ((++++) means a ratio of Notch IC50/Aβ EC50 (determined as described in Example D) of >200)
O=S(=O)(c1ccc(C(F)(F)F)nc1)N1C2Cc3[nH]ncc3C1c1cc(Br)ccc12 (single isomer, unassigned; (-)) [(−)-6-bromo-11-{[6-(trifluoromethyl)pyridin-3-yl]sulfonyl}-1,4,9,10-tetrahydro-4,9-epiminobenzo[4,5]cyclohepta[1,2-c]pyrazole] | (+) ((+) means a ratio from about 50 to about 99)
O=C1c2[nH]ncc2C2c3cccc(F)c3C1N2S(=O)(=O)c1ccc(C(F)(F)F)nc1 (single isomer, unassigned; (-)) [(−)-8-fluoro-11-{[6-(trifluoromethyl)pyridin-3-yl]sulfonyl}-4,9-dihydro-4,9-epiminobenzo[4,5]cyclohepta[1,2-c]pyrazol-10(1H)-one] | (++++) ((++++) means a ratio of Notch IC50/Aβ EC50 (determined as described in Example D) of >200)
